Measurements from ChEMBL document CHEMBL1140465, “The design and preliminary structure-activity relationship studies of benzotriazines as potent inhibitors of Abl and Abl-T315I enzymes” (Bioorg Med Chem Lett, 2007).
Each block holds one compound with its values, some of them ahead of it. Activity calls are given as the source filed them. The calls are words filed in the database; no cut-off is given here.

What was measured:
Homo sapiens [1] = organism: Homo sapiens; experiment: Apoptosis inducing activity in Bcr-Abl-T315I cells assessed as induction of DNA fragmentation at 2 uM after 24 hrs; type: functional, cell-based
BaF3 [2] = experiment: Apoptosis inducing activity in Ba/F3 cells assessed as induction of DNA fragmentation at 2 uM after 24 hrs; type: functional, cell-based; details: Mus musculus
BaF3 [3] = experiment: Apoptosis inducing activity in Ba/F3 cells assessed as caspase 3 activation after 4 hrs; type: functional, cell-based; details: Mus musculus
Bcr-Abl [4] = experiment: Apoptosis inducing activity in Bcr-Abl cells assessed as induction of DNA fragmentation at 2 uM after 24 hrs; type: functional, cell-based; details: Homo sapiens
Bcr-Abl [5] = experiment: Apoptosis inducing activity in Bcr-Abl cells assessed as caspase 3 activation after 4 hrs; type: functional, cell-based; details: Homo sapiens
BaF3 [6] = experiment: Blockade of full length human Bcr-Abl expressed in mouse Ba/F3 cells assessed as inhibition of STAT5 phosphorylation; type: cell-based
BaF3 [7] = experiment: Blockade of Bcr-Abl-T315I mutant expressed in mouse Ba/F3 cells assessed as inhibition of […] phosphorylation; type: cell-based; details: Homo sapiens
Homo sapiens [8] = organism: Homo sapiens; experiment: Apoptosis inducing effect in Bcr-Abl-T315I cells assessed as caspase 3 activation after 4 hrs; type: functional, cell-based
[9] = molecular target: Tyrosine-protein kinase ABL1 (Homo sapiens, UniProt P00519, T315I); experiment: Inhibition of Abl-T315I mutant
[10] = molecular target: Tyrosine-protein kinase ABL1 (Homo sapiens, UniProt P00519)
[11] = molecular target: Proto-oncogene tyrosine-protein kinase Src (Homo sapiens, UniProt P12931); experiment: Inhibition of Src
Sequence of Proto-oncogene tyrosine-protein kinase Src (P12931 2-536 limits assumed): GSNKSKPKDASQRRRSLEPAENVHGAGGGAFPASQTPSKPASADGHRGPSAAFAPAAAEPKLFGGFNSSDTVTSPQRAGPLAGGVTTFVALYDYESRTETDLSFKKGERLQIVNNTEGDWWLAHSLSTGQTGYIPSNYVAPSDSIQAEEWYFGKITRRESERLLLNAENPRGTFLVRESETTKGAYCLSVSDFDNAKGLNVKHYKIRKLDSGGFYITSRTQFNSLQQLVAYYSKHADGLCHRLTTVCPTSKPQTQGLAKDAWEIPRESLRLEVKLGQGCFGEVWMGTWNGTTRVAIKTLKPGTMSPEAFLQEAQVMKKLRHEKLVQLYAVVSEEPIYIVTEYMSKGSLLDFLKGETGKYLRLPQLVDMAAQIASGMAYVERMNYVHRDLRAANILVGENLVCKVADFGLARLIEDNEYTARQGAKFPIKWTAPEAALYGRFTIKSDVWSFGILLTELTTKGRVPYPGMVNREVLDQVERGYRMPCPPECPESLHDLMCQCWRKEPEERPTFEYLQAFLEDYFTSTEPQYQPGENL

SMILES: Cc1cc(-c2cc(O)ccc2Cl)cc2nnc(Nc3ccc(S(=O)(=O)NCCN4CCCC4)cc3)nc12
Activity (Homo sapiens [1]): Active
Activity (BaF3 [2]): inactive
Activity (BaF3 [3]): inactive
Activity (Bcr-Abl [4]): Active
Activity (Bcr-Abl [5]): Active
Activity (BaF3 [6]): Active
Activity (BaF3 [7]): Active
Activity (Homo sapiens [8]): Active

Ki [9]: 4240 nM
Ki [10]: 11 nM
SMILES: Cc1cccc(C)c1-c1cc(C)c2nc(Nc3ccc(OCCN4CCCC4)cc3)nnc2c1

Ki [11]: 1.3 nM
SMILES: Cc1cc(-c2cc(O)ccc2Cl)cc2nnc(Nc3ccc(OCCN4CCCC4)cc3)nc12
